Reference: ChEMBL document CHEMBL1201862, “PubChem BioAssay data set” (2004)
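Test compounds were applied to cells in 96-well plates for 48 hours at 5 doses. The concentration for 50% growth inhibition is given as GI50.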 Activity calls are given as the source filed them. Rule as the data show it: active = GI50 up to about 1.1 µM and inactive = higher.

Columns and labels:
Assay in all cases: inhibition of tumour cell growth, NCI panel, 48 h
[1] = tested on: KM12
[2] = tested on: DU-145
[3] = tested on: MDA-MB-435
[4] = tested on: SN12C
[5] = tested on: MOLT-4
[6] = tested on: ACHN
[7] = tested on: COLO 205
[8] = tested on: UACC-62
[9] = tested on: SF-295
[10] = tested on: SK-MEL-2
[11] = tested on: NCI-H460
[12] = tested on: CCRF-CEM
[13] = tested on: LOX IMVI
[14] = tested on: HCT-116
[15] = tested on: NCI/ADR-RES
[16] = tested on: M14
[17] = tested on: SW-620
[18] = tested on: A549
[19] = tested on: HCC 2998

Compound | GI50 [1] | GI50 [2] | GI50 [3] | GI50 [4] | GI50 [5] | GI50 [6] | GI50 [7] | GI50 [8] | GI50 [9] | GI50 [10] | GI50 [11] | GI50 [12] | GI50 [13] | GI50 [14] | GI50 [15] | GI50 [16] | GI50 [17] | GI50 [18] | GI50 [19]
Nc1ccc(Oc2ccc(C34CC5CC(C3)CC(c3ccc(Oc6ccc(N)cc6C(F)(F)F)cc3)(C5)C4)cc2)c(C(F)(F)F)c1 | 21 µM (inactive) | 35.2 µM (inactive) | 24.2 µM (inactive) | 31.1 µM (inactive) | 35.7 µM (inactive) | 32.9 µM (inactive) | 19.1 µM (inactive) | 22.1 µM (inactive) | 25.3 µM (inactive) | 14.1 µM (inactive) | 18.4 µM (inactive) | 36.1 µM (inactive) | 17.9 µM (inactive) | 24.9 µM (inactive) | 21.7 µM (inactive) | 16.9 µM (inactive) | 36.3 µM (inactive) | 19.1 µM (inactive) | 
Cc1ccc(C(=O)Cc2nc3ncccc3[nH]c2=O)cc1 | 43.4 µM (inactive) | 58.2 µM (inactive) | 18.7 µM (inactive) | 55.5 µM (inactive) | 70.3 µM (inactive) | 25.7 µM (inactive) | 58.9 µM (inactive) | 49.8 µM (inactive) | 45.4 µM (inactive) | > 100 µM (inactive) | 45.4 µM (inactive) | > 100 µM (inactive) |  | 30.5 µM (inactive) | 59 µM (inactive) | 82.8 µM (inactive) | 80 µM (inactive) | 12.8 µM (inactive) | 51.5 µM (inactive)
Cc1c(/C=N/NC(=S)Nc2ccccc2Cl)c(=O)n(-c2ccccc2)n1C | 29.3 µM (inactive) | 60.4 µM (inactive) | > 100 µM (inactive) | 44.2 µM (inactive) | 20.5 µM (inactive) |  | 38.7 µM (inactive) | 31 µM (inactive) | 28.1 µM (inactive) | > 100 µM (inactive) | 25.4 µM (inactive) | 11 µM (inactive) | 55.3 µM (inactive) | 28.6 µM (inactive) | 20.2 µM (inactive) | 60.3 µM (inactive) | 39.9 µM (inactive) | 27.6 µM (inactive) | 
CC(=O)Nc1ncc2c(n1)-c1ccccc1OC2 | > 100 µM (inactive) | > 100 µM (inactive) | > 100 µM (inactive) | > 100 µM (inactive) | > 100 µM (inactive) | 54.3 µM (inactive) | > 100 µM (inactive) | > 100 µM (inactive) | > 100 µM (inactive) | > 100 µM (inactive) | > 100 µM (inactive) | > 100 µM (inactive) | > 100 µM (inactive) | > 100 µM (inactive) | > 100 µM (inactive) | > 100 µM (inactive) | > 100 µM (inactive) | > 100 µM (inactive) | 
OC1(C2(c3ccc(Cl)cc3)CCCC2)c2ccccc2C2=NCCN21 (stereo not given) | 18.1 µM (inactive) | 0.0716 µM (active) | 12.6 µM (inactive) | 17.5 µM (inactive) | 13.3 µM (inactive) | 16.7 µM (inactive) | 10.3 µM (inactive) | 16.1 µM (inactive) | 16.5 µM (inactive) |  | 14.3 µM (inactive) | 14.4 µM (inactive) | 14.4 µM (inactive) | 11.7 µM (inactive) | 17.1 µM (inactive) | 14.2 µM (inactive) | 22.8 µM (inactive) | 15.8 µM (inactive) | 2.4 µM (inactive)
NCCSC(c1ccccc1)c1ccccc1 | 19.7 µM (inactive) | 29.2 µM (inactive) | 19.1 µM (inactive) | 35.5 µM (inactive) | 15.7 µM (inactive) | 31.8 µM (inactive) | 23.7 µM (inactive) | 17 µM (inactive) | 18.2 µM (inactive) | 18.4 µM (inactive) | 15.1 µM (inactive) | 32.6 µM (inactive) | 16.3 µM (inactive) | 16.7 µM (inactive) | 31.3 µM (inactive) | 14.7 µM (inactive) | 18.5 µM (inactive) | 39.3 µM (inactive) | 
COc1ccc2oc(C(=O)N3CC(CCl)c4ccc([N+](=O)[O-])cc43)cc2c1 (stereo not given) | 0.381 µM (active) | 25.4 µM (inactive) | 0.468 µM (active) |  |  | 40.6 µM (inactive) | 74.6 µM (inactive) | 41.9 µM (inactive) | 13 µM (inactive) | 26.4 µM (inactive) | 31.3 µM (inactive) |  | 67 µM (inactive) | 89.1 µM (inactive) | 17.9 µM (inactive) | 89.9 µM (inactive) | > 100 µM (inactive) |  | > 100 µM (inactive)
CCOC(CN(C)C(=O)OCC(Cl)(Cl)Cl)OCC | > 100 µM (inactive) | > 100 µM (inactive) | > 100 µM (inactive) | > 100 µM (inactive) | 29.3 µM (inactive) | 99.1 µM (inactive) | 27.7 µM (inactive) | > 100 µM (inactive) | > 100 µM (inactive) |  | 61.5 µM (inactive) | 56.6 µM (inactive) | 57.9 µM (inactive) | 41.5 µM (inactive) | 39.4 µM (inactive) | 69 µM (inactive) | > 100 µM (inactive) | > 100 µM (inactive) | > 100 µM (inactive)
CC(C)(C)C1=C(Br)C(OC(=O)C(F)(F)F)(C(C)(C)C)OP1(=O)c1ccccc1 (stereo not given) | 63 µM (inactive) | 45.2 µM (inactive) | 53.3 µM (inactive) | 39 µM (inactive) |  | 32.7 µM (inactive) | 18.5 µM (inactive) | 28.8 µM (inactive) | 35.3 µM (inactive) | 29.2 µM (inactive) | 35.5 µM (inactive) |  | 45.8 µM (inactive) | 33 µM (inactive) | 35.1 µM (inactive) | 36.1 µM (inactive) |  | 25.6 µM (inactive) | 38.6 µM (inactive)
COc1cccc(C23CCN(C)C(CC(O)C2)C3)c1OC (stereo not given) | > 100 µM (inactive) | > 100 µM (inactive) | > 100 µM (inactive) | > 100 µM (inactive) | > 100 µM (inactive) | > 100 µM (inactive) | > 100 µM (inactive) | > 100 µM (inactive) | > 100 µM (inactive) | > 100 µM (inactive) |  | > 100 µM (inactive) | > 100 µM (inactive) | > 100 µM (inactive) | > 100 µM (inactive) | > 100 µM (inactive) | > 100 µM (inactive) | > 100 µM (inactive) | 
Cc1nc(C)c(N2CCN(C(=O)O)CC2)c(O)n1 | > 100 µM (inactive) | > 100 µM (inactive) | > 100 µM (inactive) | > 100 µM (inactive) | > 100 µM (inactive) | > 100 µM (inactive) | > 100 µM (inactive) | > 100 µM (inactive) | > 100 µM (inactive) |  | > 100 µM (inactive) | > 100 µM (inactive) | > 100 µM (inactive) | > 100 µM (inactive) | > 100 µM (inactive) | > 100 µM (inactive) | > 100 µM (inactive) | > 100 µM (inactive) | > 100 µM (inactive)
Cc1ccc(/C=C2/NC(=S)SC2=O)cc1 | 33.3 µM (inactive) | 58.5 µM (inactive) | 36.5 µM (inactive) | 31 µM (inactive) | 33.8 µM (inactive) | 33 µM (inactive) | 35.7 µM (inactive) |  | 27.6 µM (inactive) | 36.9 µM (inactive) | 22.4 µM (inactive) |  | 32.8 µM (inactive) | 30.5 µM (inactive) | 22.5 µM (inactive) | 33 µM (inactive) | 54.2 µM (inactive) | 36.7 µM (inactive) | 31.2 µM (inactive)
ClC(Cl)(Cl)C1CCOC1n1nnc2ccccc21 (stereo not given) |  | > 100 µM (inactive) | > 100 µM (inactive) | > 100 µM (inactive) | 21.9 µM (inactive) |  | > 100 µM (inactive) | > 100 µM (inactive) | > 100 µM (inactive) | > 100 µM (inactive) |  | 44.1 µM (inactive) |  | 92.9 µM (inactive) | 42.2 µM (inactive) | > 100 µM (inactive) |  | 63 µM (inactive) | > 100 µM (inactive)
CN(Cc1cnc2nc(N)nc(N)c2n1)c1ccc(C(=O)NC(CCC(=O)NC(P(=O)(O)O)P(=O)(O)O)C(=O)O)cc1 (stereo not given) | 8.34 µM (inactive) | 45.3 µM (inactive) | 30 µM (inactive) | 55.2 µM (inactive) | 52.8 µM (inactive) | 49.7 µM (inactive) | > 100 µM (inactive) | > 100 µM (inactive) | 13.1 µM (inactive) | 6.07 µM (inactive) | 9.62 µM (inactive) | 41.1 µM (inactive) | 8.32 µM (inactive) | 4.49 µM (inactive) | 40.8 µM (inactive) | 8.34 µM (inactive) | 6.84 µM (inactive) | 15.3 µM (inactive) | 
CC1CC[C@@]2(OC1)OC1CC3C4CCC5C[C@@H](OC6OC(CO)C(OC7OC(CO)C(O)C(OC8OC(CO)C(O)C(OC9OC(CO)C(O)C(O)C9O)C8O)C7OC7OC(CO)C(O)C(O)C7O)C(O)C6O)[C@H](O)C[C@]5(C)C4CC[C@]3(C)C1[C@@H]2C (stereo not given in full) | > 80.5 µM (inactive) | > 80.5 µM (inactive) | > 80.5 µM (inactive) | > 80.5 µM (inactive) |  | > 80.5 µM (inactive) | > 80.5 µM (inactive) | > 80.5 µM (inactive) | > 80.5 µM (inactive) |  | > 80.5 µM (inactive) | > 80.5 µM (inactive) | > 80.5 µM (inactive) | > 80.5 µM (inactive) | > 80.5 µM (inactive) | > 80.5 µM (inactive) | > 80.5 µM (inactive) | > 80.5 µM (inactive) | > 80.5 µM (inactive)
CCN(CC)CCC(=O)c1ccc(C)cc1 | > 10 µM (inactive) | 39.6 µM (inactive) | 19 µM (inactive) | 36.9 µM (inactive) | 18.5 µM (inactive) | 20.6 µM (inactive) | 16.9 µM (inactive) | 28.4 µM (inactive) | > 100 µM (inactive) |  | > 100 µM (inactive) | 10.1 µM (inactive) | 29.9 µM (inactive) | 16.3 µM (inactive) | 25.5 µM (inactive) | 19.1 µM (inactive) | 17 µM (inactive) | > 100 µM (inactive) | 43 µM (inactive)
